Target: T1, human MCH receptor (Homo sapiens, UniProt Q99705)
T1 construct: expressed in transfected cells
Assay: Functional measurements of cellular calcium flux (FLIPR) to determine IC50 values
Format: cell-based
Conditions: recombinant HEK293 cell line expressing the human MCH receptor, calcium flux after addition of agonist (MCH) in presence of ligand
From the text: Functional measurements to determine IC50 values
Cloning of the cDNA for the human MCH receptor, preparation of a recombinant HEK293 cell line which expresses the human MCH receptor, and functional measurements with the recombinant cell line took place in analogy to the description by Audinot et al. (J. Biol. Chem. 276, 13554–13562, 2001). A difference from the reference was, however, the use of the plasmid pEAK8 from EDGE Biosystems (USA) for the construction of the expression vector. The host used for the transfection was a transformed HEK cell line named “PEAK Stable Cells” (likewise from EDGE Biosystems). Functional measurements of the cellular calcium flux after addition of agonist (MCH) in the presence of ligand of the invention took place with the aid of the FLIPR apparatus from Molecular Devices (USA), using protocols of the apparatus manufacturer.

T1 sequence (Q99705 whole entry): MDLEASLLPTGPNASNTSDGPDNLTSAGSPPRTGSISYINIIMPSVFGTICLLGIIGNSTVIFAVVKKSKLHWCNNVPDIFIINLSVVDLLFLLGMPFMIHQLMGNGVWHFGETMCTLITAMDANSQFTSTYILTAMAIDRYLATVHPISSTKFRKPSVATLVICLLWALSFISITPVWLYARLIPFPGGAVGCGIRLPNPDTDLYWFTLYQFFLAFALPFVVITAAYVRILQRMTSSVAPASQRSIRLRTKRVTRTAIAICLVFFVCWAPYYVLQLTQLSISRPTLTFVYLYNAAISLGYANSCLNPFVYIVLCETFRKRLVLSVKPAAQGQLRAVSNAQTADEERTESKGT

Row | SMILES | IC50
1 | CC(=O)N[C@@H]1CCN(C2CCC(n3ccn(-c4ccc(Oc5ccccc5)cc4)c3=O)CC2)C1 (stereo partly drawn) [Example 1, (R)-N-(1-{4-[2-oxo-3-(4-phenoxyphenyl)-2,3-dihydroimidazol-1-yl]cyclohexyl}pyrrolidin-3-yl)acetamide] | 0.01 to 2 µM
2 | CN(C)CCO[C@H]1CC[C@H](n2ccn(-c3ccc(OC4CCCC4)cc3)c2=O)CC1 [Example 2, Trans-1-(4-cyclopentyloxy-phenyl)-3-[4-(2-dimethylaminoethoxy)cyclohexyl]-1,3-dihydroimidazol-2-one] | 0.01 to 2 µM
3 | O=c1n(-c2ccc(Oc3ccccc3)cc2)ccn1C1CCC(N2CCN(CCO)CC2)CC1 (stereo not shown) [Example 3] | 2 to 10 µM
4 | O=c1n(-c2ccc(Oc3ccccc3)cc2)ccn1C1CCC(N2CCNCC2)CC1 (stereo not shown) [Example 5] | 0.01 to 2 µM
5 | O=c1n(-c2ccc(Oc3ccccc3)cc2)ccn1C1CCC(NC2CN3CCC2CC3)CC1 (stereo not shown) [Example 6] | 2 to 10 µM
6 | O=c1n(-c2ccc(Oc3ccccc3)cc2)ccn1C1CCC(N2CCCNCC2)CC1 (stereo not shown) [Example 8] | 0.01 to 2 µM
7 | CN1CCN(C2CCC(n3ccn(-c4ccc(Oc5ccccc5)cc4)c3=O)CC2)CC1 (stereo not shown) [Example 9] | 2 to 10 µM
